# Measurements: patent US20130137573A1, “HERBICIDAL COMPOSITIONS COMPRISING, AND METHODS OF USE OF, HERBICIDALLY ACTIVE PYRANDIONES” (priority 2009, published 2013)
# Legend:
# Format in all cases: in vivo
# [1] = tested on: Koshihikari rice; test: Biological Example 3 (Test 120): damage to flooded transplanted rice; details: for Koshihikari rice % herbicidal damage, Mean of 2 repetitions / Koshihikari rice % herbicidal damage, Repetition A / Koshihikari rice % herbicidal damage, Repetition B / rice phytotoxicity (span of the 2 repetitions): EC050, 14DAA; for rice phytotoxicity (span of the 2 repetitions): Koshihikari
# Description: (§1) Rice seeds, variety Koshihikari, were sown in seed trays, after 7 days they were transplanted as 3 groups of 2 plants, into pots containing a standard clay soil saturated with water replicating swampy conditions. These were grown on for 9 days in a glasshouse bay (30/20° C. day/night; 18/6 hours light/dark; 75% humidity). Approx 10-20 seeds of Echinochloa crus-galli were sown into pots 13 days prior to application, in the same conditions as the rice. All pots were flooded to 2-3 cm water depth the day prior to application. Growth stages at time of application were: Rice: 2-3 leaves; ECHCG: 2-3 leaves.
# (§2) The test solutions were prepared by mixing the appropriate aliquots of the test substance (here, compound A-13 as the EC050 Formulation Example 1 disclosed herein) in de-ionised water to give the desired treatment concentration.
# (§3) Application was made by pipetting the required amount of the test solution gently into the flood water of the appropriate pot.
# (§4) The test plants were grown on in the same glasshouse conditions, and watered twice daily keeping the flood water at a depth of 2-3 cm.
# (§5) A visual assessment of the % herbicidal damage was made 14 days after application (0=no damage to plants, 100=total kill).
# [2] = tested on: IR-64 rice; test: Biological Example 4 (Test 110): wet seeded rice (WSR) method, IR-64 rice damage; details: for WSR Rice IR-64 % herbicidal damage: EC050 + 0.2% Adsee, foliar spray, 14 days after application
# Description: (§6) Rice seeds varieties IR-64 and Arborio, Echinochloa crus-galli (ECHCG), and Leptochloa chinensis (LEFCH) were sown in seed trays containing a standard sandy loam soil saturated with water replicating swampy conditions. They were sown at intervals to achieve plants at the following growth stages at time of application: IR-64 and Arborio rice: from 3 leaves on the main stem to tillering; ECHCG: at two different leaf stages: 0-0.5 leaf and 2-3 leaf; LEFCH: 3 leaf. Glasshouse bay conditions were 30/20° C. day/night; 18/6 hours light/dark; 75% humidity.
# (§7) The test solutions were prepared by mixing the appropriate aliquots of the test substance (here, compound A-13 as EC050 Formulation Example 1) and adjuvant (0.2% Adsee as adjuvant) in de-ionised water to give the desired treatment concentration.
# (§8) Application was as a foliar spray, made using a tracksprayer. 3 days after application the trays were flooded to 2-3 cm water depth, and maintained at this level for the duration of the test.
# (§9) No. of repetitions: 1 test only.
# as §5
# [3] = tested on: Echinochloa colona (ECHCO); test: Biological Example 4 (Test 110): dry seeded rice (DSR) method, ECHCO damage; details: for DSR ECHCO 0.5lf % herbicidal damage / DSR ECHCO 3lf % herbicidal damage: EC050 + 0.2% Adsee, foliar spray, 14 days after application; for DSR ECHCO 0.5lf % herbicidal damage: 0.5 leaf stage; for DSR ECHCO 3lf % herbicidal damage: 3 leaf stage
# Description: Echinochloa colona (ECHCO) seeds were sown in seed trays containing a standard sandy loam soil. They were sown at intervals to achieve plants at 0-0.5 leaf and 2-3 leaves at the time of application. Irrigation occurred to maintain the soil at moist but not saturated conditions. Glasshouse bay conditions were 30/20° C. day/night; 18/6 hours light/dark; 75% humidity.
# as §7
# Application was as a foliar spray, made using a tracksprayer.
# The test plants were grown on in the same glasshouse conditions, and watered to maintain moist conditions.
# as §9, §5
# [4] = tested on: Arborio rice; test: Biological Example 4 (Test 110): wet seeded rice (WSR) method, Arborio rice damage; details: EC050 + 0.2% Adsee, foliar spray, 14 days after application
# Description: as §6, §7, §8, §9, §5
# [5] = tested on: IR-64 rice; test: Biological Example 2 (Test 109): damage to flooded transplanted rice; details: for IR-64 rice % herbicidal damage: EC050, into flood water, 14 days after application
# Description: as §1, with “IR-64,” for “Koshihikari,”, “sandy loam” for “clay”, “leaves,” for “leaves;”
# as §2, §3, §4, §5
# [6] = tested on: Echinochloa crus-galli (ECHCG); test: Biological Example 2 (Test 109): visual herbicidal damage to flooded ECHCG; details: EC050, into flood water, 14 days after application
# Description: as §1, with “IR-64,” for “Koshihikari,”, “sandy loam” for “clay”, “leaves,” for “leaves;”
# as §2, §3, §4, §5
# [7] = tested on: IR-64 rice; test: Biological Example 1 (Test 125): damage (phytotoxicity) to flooded transplanted rice; details: alone or in tested mixtures; A-4 mixtures especially at higher application rates of compound A-4
# Description: Rice seeds, variety IR-64 (an indica type of rice), were sown in seed trays. After 7 days the resulting plants were transplanted as 3 groups of 2 plants, into pots containing a standard sandy loam soil saturated with water replicating swampy conditions. […] Leptochloa chinensis (LEFCH) and Echinochloa crus-galli (ECHCG) were sown as 2 separate groups of approx 10-20 seeds into pots 13 days prior to application of the test substances, in the same glasshouse conditions as the rice. Therefore, each pot of weeds contained a group of LEFCH and a separate group of ECHCG. All pots of rice and all pots of weeds were flooded to 2-3 cm water depth the day prior to application of the test substances. Growth stages at time of application were as follows: Rice: from 2 leaves on the main stem up to tillering; ECHCG: from 2 leaves on the main stem up to tillering; LEFCH: 2-3 leaves.
# Most of the test substances were used as formulated products. […] Imazosulfuron (a comparator co-herbicide) was applied as a GR0.25 formulation (GR=granule).
# Application of the test substances was made by pipetting the required amount of the test solution or the test formulation gently into the flood water of the appropriate pot.
# The test plants were then grown on in the same glasshouse conditions, and watered twice daily keeping the flood water at a depth of 2-3 cm. […]
# [8] = tested on: Leptochloa chinensis (LEFCH); test: Biological Example 4 (Test 110): wet seeded rice (WSR) method, LEFCH damage; details: EC050 + 0.2% Adsee, foliar spray, LEFCH 3 leaf, 14 days after application
# Description: as §6, §7, §8, §9, §5
# [9] = tested on: Echinochloa crus-galli (ECHCG); test: Biological Example 4 (Test 110): wet seeded rice (WSR) method, ECHCG damage; details: for WSR ECHCG 0.5lf % herbicidal damage / WSR ECHCG 3lf % herbicidal damage: EC050 + 0.2% Adsee, foliar spray, 14 days after application; for WSR ECHCG 0.5lf % herbicidal damage: 0.5 leaf stage; for WSR ECHCG 3lf % herbicidal damage: 3 leaf stage
# Description: as §6, §7, §8, §9, §5
compound,measurement,setting,value
"CC1(C)OC(C)(C)C(O)=C(c2cc(-c3ccc(Cl)cc3F)ccc2C2CC2)C1=O [compound A-13, 4-(4′-Chloro-4-cyclopropyl-2′-fluorobiphenyl-3-yl)-2,2,6,6-tetramethylpyran-3,5-dione]","Koshihikari rice % herbicidal damage, Mean of 2 repetitions",[1]; 125 g/ha,13%
same,"Koshihikari rice % herbicidal damage, Repetition A",[1]; 125 g/ha,10%
same,"Koshihikari rice % herbicidal damage, Repetition B",[1]; 125 g/ha,15%
same,rice phytotoxicity (span of the 2 repetitions),[1]; 125 g/ha,10-15%
same,"Koshihikari rice % herbicidal damage, Mean of 2 repetitions",[1]; 250 g/ha,20%
same,"Koshihikari rice % herbicidal damage, Repetition A",[1]; 250 g/ha,20%
same,"Koshihikari rice % herbicidal damage, Repetition B",[1]; 250 g/ha,20%
same,"Koshihikari rice % herbicidal damage, Mean of 2 repetitions",[1]; 500 g/ha,25%
same,"Koshihikari rice % herbicidal damage, Repetition A",[1]; 500 g/ha,20%
same,"Koshihikari rice % herbicidal damage, Repetition B",[1]; 500 g/ha,30%
same,rice phytotoxicity (span of the 2 repetitions),[1]; 500 g/ha,20-30%
same,selectivity margin for use on rice (Koshihikari vs ECHCG),"[1]; Biological Example 3, 125 g/ha vs 500 g/ha",reasonable selectivity margin
same,WSR Rice IR-64 % herbicidal damage,[2]; 8 g/ha,0%
same,WSR Rice IR-64 % herbicidal damage,[2]; 60 g/ha,0%
same,WSR Rice IR-64 % herbicidal damage,[2]; 125 g/ha,5%
same,WSR Rice IR-64 % herbicidal damage,[2]; 500 g/ha,35%
same,selectivity margin between rice and ECHCG,"[2]; Biological Example 4, wet seeded rice, 60 and 125 g/ha",good selectivity margin
same,DSR ECHCO 0.5lf % herbicidal damage,[3]; 8 g/ha,0%
same,DSR ECHCO 3lf % herbicidal damage,[3]; 8 g/ha,85%
same,"DSR weed control, in words","[3]; 60 and 125 g/ha, 2 growth stages, 0.5 leaf and 3 leaf, dry seeded rice method",controlled
same,DSR ECHCO 0.5lf % herbicidal damage,[3]; 60 g/ha,90%
same,DSR ECHCO 3lf % herbicidal damage,[3]; 60 g/ha,100%
same,DSR ECHCO 0.5lf % herbicidal damage,[3]; 125 g/ha,90%
same,DSR ECHCO 3lf % herbicidal damage,[3]; 125 g/ha,100%
same,DSR ECHCO 0.5lf % herbicidal damage,[3]; 500 g/ha,90%
same,DSR ECHCO 3lf % herbicidal damage,[3]; 500 g/ha,100%
same,WSR Rice Arborio % herbicidal damage,[4]; 8 g/ha,0%
same,WSR Rice Arborio % herbicidal damage,[4]; 60 g/ha,0%
same,WSR Rice Arborio % herbicidal damage,[4]; 125 g/ha,0%
same,WSR Rice Arborio % herbicidal damage,[4]; 500 g/ha,60%
same,IR-64 rice % herbicidal damage,[5]; 120 g/ha,5%
same,IR-64 rice % herbicidal damage,[5]; 240 g/ha,18%
same,IR-64 rice % herbicidal damage,[5]; 360 g/ha,5%
same,selectivity margin in rice (IR-64 rice vs ECHCG),"[5]; Biological Example 2, 120 g/ha",good selectivity margin
same,ECHCG % herbicidal damage,[6]; 60 g/ha,68%
same,ECHCG % herbicidal damage,[6]; 120 g/ha,90%
same,ECHCG % herbicidal damage,[6]; 240 g/ha,98%
same,"phytotoxicity (damage) to IR-64 transplanted flooded rice, in words",[7],very low phytotoxicity
same,WSR LEFCH % herbicidal damage,[8]; 8 g/ha,10%
same,WSR LEFCH % herbicidal damage,[8]; 60 g/ha,10%
same,WSR LEFCH % herbicidal damage,[8]; 125 g/ha,65%
same,WSR LEFCH % herbicidal damage,[8]; 500 g/ha,75%
same,WSR ECHCG 0.5lf % herbicidal damage,[9]; 8 g/ha,45%
same,WSR ECHCG 3lf % herbicidal damage,[9]; 8 g/ha,65%
same,WSR ECHCG control,"[9]; 60 and 125 g/ha, 2 growth stages, 0.5 leaf and 3 leaf, wet seeded rice method",90-100%
same,WSR ECHCG 0.5lf % herbicidal damage,[9]; 60 g/ha,90%
same,WSR ECHCG 3lf % herbicidal damage,[9]; 60 g/ha,100%
same,WSR ECHCG 0.5lf % herbicidal damage,[9]; 125 g/ha,100%
same,WSR ECHCG 3lf % herbicidal damage,[9]; 125 g/ha,100%
same,WSR ECHCG 0.5lf % herbicidal damage,[9]; 500 g/ha,100%
same,WSR ECHCG 3lf % herbicidal damage,[9]; 500 g/ha,100%
